Reference: patent publication US7678583B2, “Method of lysis of erythrocytes” (Immunotech, S.A., priority 2000, dated 2010)

Legend:
erythrocytes = assay: Experiment 3: speed of lysis with carbonic anhydrases from different sources in lysis reagent according to Example 1; assay type: cell-based; conditions: Example 1 reagent, carbonic anhydrase replaced by preparation at 5000 W-A U/l; OD at 700 nm; time to minimum level
Method: In a lysis reagent according to Example 1, the component carbonic anhydrase at 50,000 W-A U/I was replaced by preparations of carbonic anhydrase as indicated in the table, each at 5000 W-A U/I. The lysis process was tracked spectrophotometrically (measurement of the OD at 700 nm). The duration of the lysis is determined by the time necessary to achieve a minimum level.

[1] = Experiment 2: conversion of ammonium carbamate into ammonium carbonate, precipitation in 85% of acetone; assay type: biochemical

## CAI, C-4396: carbonic anhydrase I preparation, Sigma, human
erythrocytes
  Speed of lysis at 5000 W-A U/l: 5.06 min

## carbonic anhydrase
[1]
  catalysis of the conversion carbonate / carbamate+H2O (in words): also catalyses the conversion carbonate

## N.NC(=O)O [100 mM NH2CO2NH4, ammonium carbamate, reference compound]
[1]; carbonate precipitates and not the carbamate
  Duration before complete precipitation in 85% of acetone: 240 min

## CAII, C-2522: carbonic anhydrase II preparation, Sigma, bovine
erythrocytes
  Speed of lysis at 5000 W-A U/l: 8.51 min

## CAI, C-5290: carbonic anhydrase I preparation, Sigma, human
erythrocytes
  Speed of lysis at 5000 W-A U/l: 3.24 min
